Assay results from US20230407243A1, “GENETIC PLATFORM TO INVESTIGATE THE FUNCTIONS OF BACTERIAL DRUG EFFLUX PUMPS” (priority 2022, published 2023).
Like-named read-outs stand apart in the source and are kept apart here.

Tests used:
Format in all cases: cell-based, Escherichia coli
E. coli EKO-35 = assay: microbe, parasite or virus in culture; conditions: for Fold change of MICs: EKO-35 compared to EKO-35 (reference); for Minimum inhibitory concentration (MIC), EKO-35 / Minimum Inhibitory Concentration, EKO-35 / MIC: technical duplicate; for MIC: Escherichia coli, EKO35
How it was run: (§1)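 MIC derived from pre-incubation-corrected OD600 after 18 h growth at 37° C. (900 rpm) in MHB II. Inoculum was cells from 18 h LB culture adjusted to OD600 ~1.0 in PBS, then diluted 1/2000; compounds two-fold serially titrated in duplicate, DMSO as solvent control.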

E. coli ΔtolC = assay: microbe, parasite or virus in culture; conditions: for Minimum inhibitory concentration (MIC), ΔtolC: Table 10, without pore; for Minimum inhibitory concentration (MIC), ΔtolC / Minimum Inhibitory Concentration, ΔtolC: technical duplicate; for Minimum Inhibitory Concentration, ΔtolC: Table 13A, non-porinated
How it was run: as §1

[1] = tested on: wild-type E. coli K-12 str. BW25113; assay: microbe, parasite or virus in culture; conditions: technical duplicate; for MIC: Escherichia coli, BW25113
How it was run: as §1

EKO-35 araC::mexCD Pore = assay: MIC susceptibility profiling, porinated efflux platform; conditions: for Fold changes of MICs: EKO-35 araC::mexCD Pore compared to EKO-35-Pore; for efflux pump-mediated resistance vs EKO-35-Pore: MexCD, OM compromised
How it was run: (§2)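 Strains carry the fhuA ΔC/Δ4L pore integrated between glmS and pstS under a constitutive promoter, with pore activity checked by vancomycin susceptibility. Overnight LB cultures were adjusted in PBS pH 7.4 to OD600 ~1.0 and diluted 1/2000 into MHB II. 2-fold compound titrations were read by OD600 after 18 h at 37 °C.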

EKO-35 araC::emrKY Pore = assay: as above; conditions: for Fold changes of MICs: EKO-35 araC::emrKY Pore compared to EKO-35-Pore
How it was run: as §2

EKO-35 araC::mdtBC Pore = assay: as above; conditions: for Fold changes of MICs: EKO-35 araC::mdtBC Pore compared to EKO-35-Pore
How it was run: as §2

EKO-35 araC::mdtEF Pore = assay: as above; conditions: for Fold changes of MICs: EKO-35 araC::mdtEF Pore compared to EKO-35-Pore
How it was run: as §2

EKO-35 araC::macAB Pore = assay: as above; conditions: for Fold changes of MICs: EKO-35 araC::macAB Pore compared to EKO-35-Pore
How it was run: as §2

[2] = EKO-35 araC::mexCD Pore, technical duplicate
[3] = EKO-35 araC::emrKY Pore, technical duplicate
[4] = EKO-35 araC::mdtBC Pore, technical duplicate
[5] = Table 14A, porinated, technical duplicate
[6] = EKO-35 araC::macAB Pore, technical duplicate

C=C1CCO[C@]2([C@@H](O)[C@@](C)(O)CO)NC(=O)[C@@]1(O)NC2=O [Bicyclomycin]
Fold change of MICs (E. coli EKO-35): 1 fold
Minimum inhibitory concentration (MIC), EKO-35 (E. coli EKO-35; Table 10, without pore): 200 µg/mL
Minimum Inhibitory Concentration, EKO-35 (E. coli EKO-35; Table 13A, non-porinated): 200 µg/mL
Minimum inhibitory concentration (MIC), ΔtolC (E. coli ΔtolC): 200 µg/mL
Minimum Inhibitory Concentration, ΔtolC (E. coli ΔtolC): 200 µg/mL
Minimum inhibitory concentration (MIC), K-12 ([1]; Table 10, without pore): 200 µg/mL
Minimum Inhibitory Concentration, K-12 ([1]; Table 13A, non-porinated): 200 µg/mL
Fold changes of MICs (EKO-35 araC::mexCD Pore): 1 fold
Minimum inhibitory concentration (EKO-35 araC::mexCD Pore; [2]): 200 µg/mL
Fold changes of MICs (EKO-35 araC::emrKY Pore): 1 fold
Minimum inhibitory concentration (EKO-35 araC::emrKY Pore; [3]): 200 µg/mL
Fold changes of MICs (EKO-35 araC::mdtBC Pore): 1 fold
Minimum inhibitory concentration (EKO-35 araC::mdtBC Pore; [4]): 200 µg/mL
Fold changes of MICs (EKO-35 araC::mdtEF Pore): 1 fold
Minimum inhibitory concentration, EKO-35 araC::mdtEF Pore (EKO-35 araC::mdtEF Pore; [5]): 200 µg/mL
Fold changes of MICs (EKO-35 araC::macAB Pore): 1 fold
Minimum inhibitory concentration (EKO-35 araC::macAB Pore; [6]): 200 µg/mL

C[C@H](CCC(=O)NCCS(=O)(=O)[O-])[C@H]1CC[C@H]2[C@@H]3CC[C@@H]4C[C@H](O)CC[C@]4(C)[C@H]3C[C@H](O)[C@]12C.[Na+] [sodium taurodeoxycholate]
Fold change of MICs (E. coli EKO-35): 1 fold
Minimum inhibitory concentration (MIC), EKO-35 (E. coli EKO-35; Table 10, without pore): 500 µg/mL
Minimum Inhibitory Concentration, EKO-35 (E. coli EKO-35; Table 13A, non-porinated): 500 µg/mL
Minimum inhibitory concentration (MIC), ΔtolC (E. coli ΔtolC): 250 µg/mL
Minimum Inhibitory Concentration, ΔtolC (E. coli ΔtolC): 250 µg/mL
Minimum inhibitory concentration (MIC), K-12 ([1]; Table 10, without pore): 1000 µg/mL
Minimum Inhibitory Concentration, K-12 ([1]; Table 13A, non-porinated): 1000 µg/mL
Fold changes of MICs (EKO-35 araC::mexCD Pore): 4 fold
Minimum inhibitory concentration (EKO-35 araC::mexCD Pore; [2]): 1000 µg/mL
efflux pump-mediated resistance vs EKO-35-Pore (EKO-35 araC::mexCD Pore): increased resistance
Fold changes of MICs (EKO-35 araC::emrKY Pore): 1 fold
Minimum inhibitory concentration (EKO-35 araC::emrKY Pore; [3]): 250 µg/mL
Fold changes of MICs (EKO-35 araC::mdtBC Pore): 4 fold
Minimum inhibitory concentration (EKO-35 araC::mdtBC Pore; [4]): 1000 µg/mL
efflux pump-mediated resistance vs EKO-35-Pore (EKO-35 araC::mdtBC Pore; MdtBC with the pore): associated MdtBC with resistance
Fold changes of MICs (EKO-35 araC::mdtEF Pore): 4 fold
efflux pump-mediated resistance vs EKO-35-Pore (EKO-35 araC::mdtEF Pore; MdtEF with the pore): increased resistance
Minimum inhibitory concentration, EKO-35 araC::mdtEF Pore (EKO-35 araC::mdtEF Pore; [5]): 1000 µg/mL
Fold changes of MICs (EKO-35 araC::macAB Pore): 1 fold
Minimum inhibitory concentration (EKO-35 araC::macAB Pore; [6]): 250 µg/mL

COc1ccc(C[C@H](N)C(=O)N[C@H]2[C@@H](O)[C@H](n3cnc4c(N(C)C)ncnc43)O[C@@H]2CO)cc1 [puromycin]
Fold change of MICs (E. coli EKO-35): 1 fold
MIC (E. coli EKO-35; Table 10, without pore, read-out: Minimum inhibitory concentration (MIC), EKO-35): 1.56 µg/mL
MIC (E. coli EKO-35; Table 13A, non-porinated, read-out: Minimum Inhibitory Concentration, EKO-35): 1.56 µg/mL
MIC (E. coli ΔtolC; Escherichia coli, 18 h, read-out: Minimum Inhibitory Concentration, ΔtolC): 3.12 µg/mL
Minimum inhibitory concentration (MIC), ΔtolC (E. coli ΔtolC): 3.125 µg/mL
MIC ([1]; Table 10, without pore, read-out: Minimum inhibitory concentration (MIC), K-12): 50 µg/mL
MIC ([1]; Table 13A, non-porinated, read-out: Minimum Inhibitory Concentration, K-12): 50 µg/mL
Fold changes of MICs (EKO-35 araC::mexCD Pore): 2 fold
MIC (EKO-35 araC::mexCD Pore; Escherichia coli, EKO-35 araC::mexCD Pore, technical duplicate, read-out: Minimum inhibitory concentration): 1.56 µg/mL
efflux pump-mediated resistance vs EKO-35-Pore (EKO-35 araC::mexCD Pore): no longer associated MexCD with resistance
Fold changes of MICs (EKO-35 araC::emrKY Pore): 2 fold
MIC (EKO-35 araC::emrKY Pore; Escherichia coli, EKO-35 araC::emrKY Pore, technical duplicate, read-out: Minimum inhibitory concentration): 1.56 µg/mL
Fold changes of MICs (EKO-35 araC::mdtBC Pore): 1 fold
MIC (EKO-35 araC::mdtBC Pore; Escherichia coli, EKO-35 araC::mdtBC Pore, technical duplicate, read-out: Minimum inhibitory concentration): 0.781 µg/mL
Fold changes of MICs (EKO-35 araC::mdtEF Pore): 2 fold
MIC (EKO-35 araC::mdtEF Pore; Escherichia coli, Table 14A, porinated, technical duplicate, read-out: Minimum inhibitory concentration, EKO-35 araC::mdtEF Pore): 1.56 µg/mL
Fold changes of MICs (EKO-35 araC::macAB Pore): 1 fold
MIC (EKO-35 araC::macAB Pore; Escherichia coli, EKO-35 araC::macAB Pore, technical duplicate, read-out: Minimum inhibitory concentration): 0.781 µg/mL

N#CC(=NNc1ccc(F)c(Cl)c1)C(=O)c1ccc(Cl)cc1 [compound 15]
Fold change of MICs (E. coli EKO-35): 1 fold
Minimum inhibitory concentration (MIC), EKO-35 (E. coli EKO-35; Table 10, without pore): 320 µg/mL
Minimum Inhibitory Concentration, EKO-35 (E. coli EKO-35; Table 13A, non-porinated): 320 µg/mL
Minimum inhibitory concentration (MIC), ΔtolC (E. coli ΔtolC): 1.25 µg/mL
Minimum Inhibitory Concentration, ΔtolC (E. coli ΔtolC): 1.25 µg/mL
Minimum inhibitory concentration (MIC), K-12 ([1]; Table 10, without pore): 320 µg/mL
Minimum Inhibitory Concentration, K-12 ([1]; Table 13A, non-porinated): 320 µg/mL
Fold changes of MICs (EKO-35 araC::mexCD Pore): 1 fold
Minimum inhibitory concentration (EKO-35 araC::mexCD Pore; [2]): 320 µg/mL
Fold changes of MICs (EKO-35 araC::emrKY Pore): 1 fold
Minimum inhibitory concentration (EKO-35 araC::emrKY Pore; [3]): 320 µg/mL
Fold changes of MICs (EKO-35 araC::mdtBC Pore): 1 fold
Minimum inhibitory concentration (EKO-35 araC::mdtBC Pore; [4]): 320 µg/mL
Fold changes of MICs (EKO-35 araC::mdtEF Pore): 1 fold
Minimum inhibitory concentration, EKO-35 araC::mdtEF Pore (EKO-35 araC::mdtEF Pore; [5]): 320 µg/mL
Fold changes of MICs (EKO-35 araC::macAB Pore): 1 fold
Minimum inhibitory concentration (EKO-35 araC::macAB Pore; [6]): 320 µg/mL

CC(C)(C)c1cc(C(=O)NNC(=O)Nc2cccc3ccccc23)n(Cc2ccc(F)cc2)n1 [compound 4]
Fold change of MICs (E. coli EKO-35): 1 fold
Minimum inhibitory concentration (MIC), EKO-35 (E. coli EKO-35; Table 10, without pore): 20 µg/mL
Minimum Inhibitory Concentration, EKO-35 (E. coli EKO-35; Table 13A, non-porinated): 20 µg/mL
susceptibility of EKO-35 to the compound (E. coli EKO-35; synthetic efflux substrates of FIG. 12): susceptible
Minimum inhibitory concentration (MIC), ΔtolC (E. coli ΔtolC): 10 µg/mL
Minimum Inhibitory Concentration, ΔtolC (E. coli ΔtolC): 10 µg/mL
Minimum inhibitory concentration (MIC), K-12 ([1]; Table 10, without pore): 320 µg/mL
Minimum Inhibitory Concentration, K-12 ([1]; Table 13A, non-porinated): 320 µg/mL
Fold changes of MICs (EKO-35 araC::mexCD Pore): 16 fold
Minimum inhibitory concentration (EKO-35 araC::mexCD Pore; [2]): 40 µg/mL
Fold changes of MICs (EKO-35 araC::emrKY Pore): 1 fold
Minimum inhibitory concentration (EKO-35 araC::emrKY Pore; [3]): 1.25 µg/mL
Fold changes of MICs (EKO-35 araC::mdtBC Pore): 1 fold
Minimum inhibitory concentration (EKO-35 araC::mdtBC Pore; [4]): 2.5 µg/mL
Minimum inhibitory concentration, EKO-35 araC::mdtEF Pore (EKO-35 araC::mdtEF Pore; [5]): 320 µg/mL
Fold changes of MICs (EKO-35 araC::macAB Pore): 2 fold
Minimum inhibitory concentration (EKO-35 araC::macAB Pore; [6]): 5 µg/mL
